Values quoted from earlier work in PMC9516332 (Frontiers in Oncology, 2022).
Where two headings read alike, the source gives them in different places.

What was measured:
[1] = target: panel of 255 wild-type kinases (Homo sapiens, UniProt Q9P286); conditions: PAK5, 1 µmol/L single concentration, cited from earlier work
[2] = target: panel of 255 wild-type kinases (Homo sapiens, UniProt Q5VT25); conditions: MRCKα, 1 µmol/L single concentration, cited from earlier work
[3] = target: panel of 255 wild-type kinases (Homo sapiens, UniProt Q8TDX7); conditions: NEK7, 1 µmol/L single concentration, cited from earlier work
[4] = target: T1, panel of 255 wild-type kinases (Homo sapiens, UniProt P41743); conditions: kinase PKCι, 1 µmol/L single concentration, cited from earlier work
T1 sequence (P41743 1-596): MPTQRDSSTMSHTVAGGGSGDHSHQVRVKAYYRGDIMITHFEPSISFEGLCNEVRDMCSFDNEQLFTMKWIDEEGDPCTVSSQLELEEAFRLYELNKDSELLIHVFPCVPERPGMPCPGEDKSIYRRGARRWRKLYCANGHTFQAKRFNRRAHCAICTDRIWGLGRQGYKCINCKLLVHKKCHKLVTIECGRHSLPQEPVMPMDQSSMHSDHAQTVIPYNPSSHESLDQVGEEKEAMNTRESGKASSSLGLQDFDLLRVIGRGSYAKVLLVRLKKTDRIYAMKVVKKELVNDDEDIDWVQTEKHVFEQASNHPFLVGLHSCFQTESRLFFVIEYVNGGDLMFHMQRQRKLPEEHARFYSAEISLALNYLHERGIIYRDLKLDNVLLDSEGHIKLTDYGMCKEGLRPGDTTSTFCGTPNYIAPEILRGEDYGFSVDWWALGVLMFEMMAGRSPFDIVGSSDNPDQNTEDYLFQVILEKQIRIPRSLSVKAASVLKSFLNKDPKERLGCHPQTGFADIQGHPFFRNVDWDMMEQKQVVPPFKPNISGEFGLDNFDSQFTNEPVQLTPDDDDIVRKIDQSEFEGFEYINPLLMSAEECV

[5] = target: panel of 255 wild-type kinases (Homo sapiens, UniProt Q07912); conditions: ACK kinase assay, 1 µmol/L single concentration, cited from earlier work
[6] = target: T2, panel of 255 wild-type kinases (Homo sapiens, UniProt P54753); conditions: kinase EPHB3, 1 µmol/L single concentration, cited from earlier work
T2 sequence (P54753 34-998): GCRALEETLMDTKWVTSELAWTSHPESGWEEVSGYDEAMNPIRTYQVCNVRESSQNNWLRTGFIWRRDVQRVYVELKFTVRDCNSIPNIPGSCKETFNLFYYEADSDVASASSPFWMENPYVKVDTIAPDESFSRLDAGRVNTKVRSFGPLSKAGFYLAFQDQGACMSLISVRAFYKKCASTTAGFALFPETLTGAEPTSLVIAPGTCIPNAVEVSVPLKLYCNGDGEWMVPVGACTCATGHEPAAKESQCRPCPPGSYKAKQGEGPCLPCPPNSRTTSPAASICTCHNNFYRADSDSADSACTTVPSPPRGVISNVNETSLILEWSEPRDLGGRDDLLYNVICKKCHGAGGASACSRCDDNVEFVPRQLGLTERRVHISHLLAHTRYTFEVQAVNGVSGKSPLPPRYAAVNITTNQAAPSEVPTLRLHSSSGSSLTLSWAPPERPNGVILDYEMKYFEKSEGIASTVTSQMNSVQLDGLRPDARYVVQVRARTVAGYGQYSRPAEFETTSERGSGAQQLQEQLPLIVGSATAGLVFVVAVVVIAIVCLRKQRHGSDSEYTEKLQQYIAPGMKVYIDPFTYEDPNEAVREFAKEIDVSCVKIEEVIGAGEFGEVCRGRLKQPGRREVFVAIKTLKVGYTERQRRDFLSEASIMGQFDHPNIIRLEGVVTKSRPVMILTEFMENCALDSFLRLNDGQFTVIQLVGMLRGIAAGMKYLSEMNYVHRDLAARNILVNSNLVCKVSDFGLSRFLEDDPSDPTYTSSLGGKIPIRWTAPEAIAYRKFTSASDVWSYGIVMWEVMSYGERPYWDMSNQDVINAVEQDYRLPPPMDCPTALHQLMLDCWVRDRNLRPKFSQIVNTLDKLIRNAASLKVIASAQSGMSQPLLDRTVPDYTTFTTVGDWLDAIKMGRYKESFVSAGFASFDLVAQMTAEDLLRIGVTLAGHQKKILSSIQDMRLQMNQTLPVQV

[7] = target: panel of 255 wild-type kinases (Homo sapiens, UniProt Q02763); conditions: kinase TIE2, 1 µmol/L single concentration, cited from earlier work
[8] = target: panel of 255 wild-type kinases (Homo sapiens, UniProt P17948); conditions: kinase FLT1, 1 µmol/L single concentration, cited from earlier work
[9] = ref DOI: 10.1158/1535-7163.MCT-18-0877
[10] = ref DOI: 10.1371/journal.pone.0092146

Row | Structure (SMILES) | %-inhibition, PAK5 [1, 9] [%] | %-inhibition, MRCKα [2, 9] [%] | %-inhibition, NEK7 [3, 9] [%] | %-inhibition at 1 µmol/L, PKCι [4, 9] [%] | %-inhibition ACK [5, 9] [%] | %-inhibition at 1 µmol/L, EPHB3 [6, 9] [%] | %-inhibition at 1 µmol/L, TIE2 [7, 9] [%] | %-inhibition at 1 µmol/L, FLT1 [8, 9] [%] | %-inhibition, PAK5 [1, 10] [%] | %-inhibition, MRCKα [2, 10] [%] | %-inhibition, NEK7 [3, 10] [%] | %-inhibition at 1 µmol/L, PKCι [4, 10] [%] | %-inhibition ACK [5, 10] [%] | %-inhibition at 1 µmol/L, EPHB3 [6, 10] [%] | %-inhibition at 1 µmol/L, TIE2 [7, 10] [%] | %-inhibition at 1 µmol/L, FLT1 [8, 10] [%]
1 | CO[C@@H]1[C@H](N(C)C(=O)c2ccccc2)C[C@H]2O[C@]1(C)n1c3ccccc3c3c4c(c5c6ccccc6n2c5c31)C(=O)NC4 [midostaurin] | 37 | 14 | -11 | 3 | 102 | 1.53 | 30 | 95 | – | – | – | – | – | – | – | –
2 | C=CC(=O)Nc1cc(Nc2nccc(-c3cn(C)c4ccccc34)n2)c(OC)cc1N(C)CCN(C)C [osimertinib] | 6 | -4.55 | 0.703 | 20 | 100 | -0.0464 | 3.73 | 9 | – | – | – | – | – | – | – | –
3 | CC(=O)Nc1cccc(-n2c(=O)n(C3CC3)c(=O)c3c(Nc4ccc(I)cc4F)n(C)c(=O)c(C)c32)c1 [trametinib] | – | – | – | – | – | – | – | – | -2.62 | -0.565 | 1.63 | 9 | -5.39 | -5.47 | -7 | -2.75
4 | CCCS(=O)(=O)Nc1ccc(F)c(C(=O)c2c[nH]c3ncc(-c4ccc(Cl)cc4)cc23)c1F [vemurafenib] | – | – | – | – | – | – | – | – | -1.23 | 0.383 | -3.56 | -16 | 40 | 2 | -2.42 | 25
